Measured values reported in US6737383B1, “Herbicidal oxadiazolidines” (priority 1999, dated 2004).

How the values were obtained:
blackgrass = assay: Test B pre/postemergence blackgrass; assay type: in vivo, Alopecurus myosuroides; settings: for Blackgrass plant response rating: scale of 0 to 10 where 0 is no effect and 10 is complete control
Procedure, shortened: (§1)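 Response is a visual 0-to-10 score relative to untreated plants, where 0 means no effect and 10 means complete control, taken twelve to sixteen days after application. Treatments went onto soil at planting and onto foliage of 1- to 4-leaf plants, using a surfactant-containing non-phytotoxic solvent.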

bamyardgrass = assay: Test B flood test barnyardgrass; assay type: in vivo, Echinochloa crus-galli
Procedure, shortened: (§2)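 Read-out is a visual response score from 0 (no effect) to 10 (complete control), assigned by comparison with untreated controls. Treatment was applied at the 2-leaf stage, and plants stayed in the greenhouse for twelve to sixteen days before scoring.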

crabgrass = assay: Test B pre/postemergence crabgrass; assay type: in vivo, Digitaria sanguinalis; settings: for Crabgrass plant response rating: scale of 0 to 10 where 0 is no effect and 10 is complete control
Procedure, shortened: as §1

velvetleaf = assay: Test B pre/postemergence velvetleaf; assay type: in vivo, Abutilon theophrasti; settings: for Velvetleaf plant response rating: scale of 0 to 10 where 0 is no effect and 10 is complete control
Procedure, shortened: as §1

smallflower flatsedge = assay: Test B flood test smallflower flatsedge; assay type: in vivo, Cyperus difformis
Procedure, shortened: as §2

bedstraw = assay: Test B pre/postemergence bedstraw; assay type: in vivo, Galium aparine; settings: Preemergence; for Bedstraw plant response rating: scale of 0 to 10 where 0 is no effect and 10 is complete control
Procedure, shortened: as §1

purple nutsedge = assay: Test B pre/postemergence purple nutsedge; assay type: in vivo, Cyperus rotundus; settings: for Nutsedge plant response rating: scale of 0 to 10 where 0 is no effect and 10 is complete control
Procedure, shortened: as §1

cocklebur = assay: Test B pre/postemergence cocklebur; assay type: in vivo, Xanthium strumarium; settings: for Cocklebur plant response rating: scale of 0 to 10 where 0 is no effect and 10 is complete control
Procedure, shortened: as §1

surinam grass = assay: Test B pre/postemergence surinam grass; assay type: in vivo, Brachiaria decumbens; settings: for B. signalgrass plant response rating: scale of 0 to 10 where 0 is no effect and 10 is complete control
Procedure, shortened: as §1

wheat = assay: Test B pre/postemergence wheat; assay type: in vivo, Triticum aestivum; settings: for Wheat plant response rating: scale of 0 to 10 where 0 is no effect and 10 is complete control
Procedure, shortened: as §1

duck salad = assay: Test B flood test duck salad; assay type: in vivo, Heteranthera limosa
Procedure, shortened: as §2

corn = assay: Test B pre/postemergence corn; assay type: in vivo, Zea mays; settings: for Corn plant response rating: scale of 0 to 10 where 0 is no effect and 10 is complete control
Procedure, shortened: as §1

wild oat = assay: Test B pre/postemergence wild oat; assay type: in vivo, Avena fatua; settings: for Wild oats plant response rating: scale of 0 to 10 where 0 is no effect and 10 is complete control
Procedure, shortened: as §1

rice = assay: Test B flood test rice; assay type: in vivo, Oryza sativa
Procedure, shortened: as §2

soybean = assay: Test B pre/postemergence soybean; assay type: in vivo, Glycine max; settings: for Soybean plant response rating: scale of 0 to 10 where 0 is no effect and 10 is complete control
Procedure, shortened: as §1

sugar beet = assay: Test B pre/postemergence sugar beet; assay type: in vivo, Beta vulgaris; settings: for Sugarbeets plant response rating: scale of 0 to 10 where 0 is no effect and 10 is complete control
Procedure, shortened: as §1

[1] = Postemergence, Rate 125 g/ha, scale 0 to 10, 0 is no effect, 10 is complete control
[2] = Postemergence, Rate 250 g/ha, scale 0 to 10, 0 is no effect, 10 is complete control
[3] = Preemergence, Rate 62 g/ha, scale 0 to 10 (0 no effect, 10 complete control)
[4] = Rate 500 g/ha, Postemergence, scale 0 to 10, 0 no effect, 10 complete control
[5] = Postemergence (flood test), Rate 125 g/ha, scale 0 to 10, 0 is no effect, 10 is complete control
[6] = Rate 62 g/ha, Postemergence (flood test species), scale of 0 to 10 where 0 is no effect and 10 is complete control
[7] = Rate 62 g/ha, flood test species, Pre-emergence, visual evaluation after twelve to sixteen days
[8] = Rate 125 g/ha, under heading Pre-emergence, flood test species, visual evaluation after twelve to sixteen days
[9] = Rate 250 g/ha, Pre-emergence, flood-test species, scale 0 to 10, 0 is no effect, 10 is complete control
[10] = Rate 500 g/ha, listed under Postemergence (flood test species), scale 0 to 10, 0 no effect, 10 complete control
[11] = Rate 500 g/ha, Pre-emergence, flood test species, scale 0 to 10 (0 no effect, 10 complete control)
[12] = flood test species, listed under Postemergence, Rate 250 g/ha, scale 0 to 10, 0 is no effect, 10 is complete control

CC1CC1n1c(=O)on(C(=O)N(c2ccc(F)cc2F)C(C)C)c1=O (stereo not shown) [Compound 372]
Plant response rating, Blackgrass (blackgrass; [1]): 4
Plant response rating, Blackgrass (blackgrass; [2]): 7
Plant response rating, Blackgrass (blackgrass; [3]): 5
Blackgrass plant response rating (0 to 10 scale) (blackgrass; Preemergence, Rate 125 g/ha): 6
Blackgrass plant response rating (blackgrass; Preemergence, Rate 250 g/ha): 10
Blackgrass plant response rating (blackgrass; Preemergence, Rate 500 g/ha): 10
Blackgrass plant response rating (blackgrass; Rate 62 g/ha, Postemergence): 4
Plant response rating, Blackgrass (blackgrass; [4]): 10
Plant response rating, Barnyardgrass (bamyardgrass; [5]): 0
Barnyardgrass plant response rating (bamyardgrass; [6]): 0
Plant response rating, Barnyardgrass (0 to 10 scale, 0 is no effect, 10 is complete control) (bamyardgrass; [7]): 0
Barnyardgrass plant response rating (0 to 10 scale, 0 is no effect, 10 is complete control) (bamyardgrass; [8]): 0
Barnyardgrass plant response rating (bamyardgrass; [9]): 0
Plant response rating, Barnyardgrass (bamyardgrass; [10]): 6
Barnyardgrass plant response rating (bamyardgrass; [11]): 0
Plant response rating, Barnyardgrass (bamyardgrass; [12]): 4
Plant response rating, Crabgrass (crabgrass; [1]): 2
Plant response rating, Crabgrass (crabgrass; [2]): 8
Plant response rating, Crabgrass (crabgrass; [3]): 8
Crabgrass plant response rating (0 to 10 scale) (crabgrass; Preemergence, Rate 125 g/ha): 9
Crabgrass plant response rating (crabgrass; Preemergence, Rate 250 g/ha): 10
Crabgrass plant response rating (crabgrass; Preemergence, Rate 500 g/ha): 10
Crabgrass plant response rating (crabgrass; Rate 62 g/ha, Postemergence): 2
Plant response rating, Crabgrass (crabgrass; [4]): 9
Plant response rating, Velvetleaf (velvetleaf; [1]): 0
Plant response rating, Velvetleaf (velvetleaf; [2]): 2
Plant response rating, Velvetleaf (velvetleaf; [3]): 3
Velvetleaf plant response rating (0 to 10 scale) (velvetleaf; Preemergence, Rate 125 g/ha): 5
Velvetleaf plant response rating (velvetleaf; Preemergence, Rate 250 g/ha): 6
Velvetleaf plant response rating (velvetleaf; Preemergence, Rate 500 g/ha): 7
Velvetleaf plant response rating (velvetleaf; Rate 62 g/ha, Postemergence): 0
Plant response rating, Velvetleaf (velvetleaf; [4]): 2
Plant response rating, S. Flatsedge (smallflower flatsedge; [5]): 2
S. Flatsedge plant response rating (smallflower flatsedge; [6]): 2
Plant response rating, S. Flatsedge (0 to 10 scale, 0 is no effect, 10 is complete control) (smallflower flatsedge; [7]): 0
S. Flatsedge plant response rating (0 to 10 scale, 0 is no effect, 10 is complete control) (smallflower flatsedge; [8]): 0
S. Flatsedge plant response rating (smallflower flatsedge; [9]): 0
Plant response rating, S. Flatsedge (smallflower flatsedge; [10]): 8
S. Flatsedge plant response rating (smallflower flatsedge; [11]): 0
Plant response rating, S. Flatsedge (smallflower flatsedge; [12]): 8
Plant response rating, Bedstraw (bedstraw; Rate 62 g/ha, scale 0 to 10 (0 no effect, 10 complete control)): 0
Bedstraw plant response rating (0 to 10 scale) (bedstraw; Rate 125 g/ha): 2
Bedstraw plant response rating (bedstraw; Rate 250 g/ha): 10
Bedstraw plant response rating (bedstraw; Rate 500 g/ha): 10
Plant response rating, Nutsedge (purple nutsedge; [1]): 0
Plant response rating, Nutsedge (purple nutsedge; [2]): 0
Plant response rating, Nutsedge (purple nutsedge; [3]): 0
Nutsedge plant response rating (0 to 10 scale) (purple nutsedge; Preemergence, Rate 125 g/ha): 0
Nutsedge plant response rating (purple nutsedge; Preemergence, Rate 250 g/ha): 0
Nutsedge plant response rating (purple nutsedge; Preemergence, Rate 500 g/ha): 10
Nutsedge plant response rating (purple nutsedge; Rate 62 g/ha, Postemergence): 0
Plant response rating, Nutsedge (purple nutsedge; [4]): 0
Plant response rating, Cocklebur (cocklebur; [1]): 0
Plant response rating, Cocklebur (cocklebur; [2]): 0
Plant response rating, Cocklebur (cocklebur; [3]): 0
Cocklebur plant response rating (0 to 10 scale) (cocklebur; Preemergence, Rate 125 g/ha): 0
Cocklebur plant response rating (cocklebur; Preemergence, Rate 250 g/ha): 2
Cocklebur plant response rating (cocklebur; Preemergence, Rate 500 g/ha): 2
Cocklebur plant response rating (cocklebur; Rate 62 g/ha, Postemergence): 0
Plant response rating, Cocklebur (cocklebur; [4]): 3
Plant response rating, B. signalgrass (surinam grass; [1]): 2
Plant response rating, B. signalgrass (surinam grass; [2]): 4
Plant response rating, B. signalgrass (surinam grass; [3]): 0
B. signalgrass plant response rating (0 to 10 scale, 0 is no effect, 10 is complete control) (surinam grass; Preemergence, Rate 125 g/ha): 4
B. signalgrass plant response rating (surinam grass; Preemergence, Rate 250 g/ha): 6
B. signalgrass plant response rating (surinam grass; Preemergence, Rate 500 g/ha): 8
B. signalgrass plant response rating (surinam grass; Rate 62 g/ha, Postemergence): 0
Plant response rating, B. signalgrass (surinam grass; [4]): 7
Plant response rating, Wheat (wheat; [1]): 0
Plant response rating, Wheat (wheat; [2]): 0
Plant response rating, Wheat (wheat; [3]): 0
Wheat plant response rating (0 to 10 scale) (wheat; Preemergence, Rate 125 g/ha): 0
Wheat plant response rating (wheat; Preemergence, Rate 250 g/ha): 0
Wheat plant response rating (wheat; Preemergence, Rate 500 g/ha): 6
Wheat plant response rating (wheat; Rate 62 g/ha, Postemergence): 0
Plant response rating, Wheat (wheat; [4]): 2
Plant response rating, Ducksalad (duck salad; [5]): 6
Ducksalad plant response rating (duck salad; [6]): 3
Plant response rating, Ducksalad (0 to 10 scale, 0 is no effect, 10 is complete control) (duck salad; [7]): 0
Ducksalad plant response rating (0 to 10 scale, 0 is no effect, 10 is complete control) (duck salad; [8]): 0
Ducksalad plant response rating (duck salad; [9]): 0
Plant response rating, Ducksalad (duck salad; [10]): 6
Ducksalad plant response rating (duck salad; [11]): 0
Plant response rating, Ducksalad (duck salad; [12]): 6
Plant response rating, Corn (corn; [1]): 0
Plant response rating, Corn (corn; [2]): 0
Plant response rating, Corn (corn; [3]): 2
Corn plant response rating (0 to 10 scale) (corn; Preemergence, Rate 125 g/ha): 2
Corn plant response rating (corn; Preemergence, Rate 250 g/ha): 9
Corn plant response rating (corn; Preemergence, Rate 500 g/ha): 9
Corn plant response rating (corn; Rate 62 g/ha, Postemergence): 0
Plant response rating, Corn (corn; [4]): 3
Plant response rating, Wild oats (wild oat; [1]): 4
Plant response rating, Wild oats (wild oat; [2]): 5
Plant response rating, Wild oats (wild oat; [3]): 4
Wild oats plant response rating (0 to 10 scale) (wild oat; Preemergence, Rate 125 g/ha): 7
Wild oats plant response rating (wild oat; Preemergence, Rate 250 g/ha): 9
Wild oats plant response rating (wild oat; Preemergence, Rate 500 g/ha): 10
Wild oats plant response rating (wild oat; Rate 62 g/ha, Postemergence): 2
Plant response rating, Wild oats (wild oat; [4]): 8
Plant response rating, Rice (rice; [5]): 0
Rice plant response rating (rice; [6]): 0
Plant response rating, Rice (0 to 10 scale, 0 is no effect, 10 is complete control) (rice; [7]): 0
Rice plant response rating (0 to 10 scale, 0 is no effect, 10 is complete control) (rice; [8]): 0
Rice plant response rating (rice; [9]): 0
Plant response rating, Rice (rice; [10]): 2
Rice plant response rating (rice; [11]): 0
Plant response rating, Rice (rice; [12]): 2
Plant response rating, Soybean (soybean; [1]): 1
Plant response rating, Soybean (soybean; [2]): 2
Plant response rating, Soybean (soybean; [3]): 0
Soybean plant response rating (0 to 10 scale) (soybean; Preemergence, Rate 125 g/ha): 0
Soybean plant response rating (soybean; Preemergence, Rate 250 g/ha): 0
Soybean plant response rating (soybean; Preemergence, Rate 500 g/ha): 2
Soybean plant response rating (soybean; Rate 62 g/ha, Postemergence): 1
Plant response rating, Soybean (soybean; [4]): 3
Plant response rating, Sugarbeets (sugar beet; [1]): 2
Plant response rating, Sugarbeets (sugar beet; [2]): 2
Plant response rating, Sugarbeets (sugar beet; [3]): 2
Sugarbeets plant response rating (0 to 10 scale) (sugar beet; Preemergence, Rate 125 g/ha): 4
Sugarbeets plant response rating (sugar beet; Preemergence, Rate 250 g/ha): 10
Sugarbeets plant response rating (sugar beet; Preemergence, Rate 500 g/ha): 10
Sugarbeets plant response rating (sugar beet; Rate 62 g/ha, Postemergence): 0
Plant response rating, Sugarbeets (sugar beet; [4]): 8
